Like-named read-outs stand apart in the source and are kept apart here.
Columns and labels:
[1] = Cytotoxicity in MT-4 cells (MTS/PES); conditions: human
[2] = test system: HIV-2 (ROD); assay: Anti-HIV-2 activity in MT-4 cells (CPE, MTS/PES); assay type: cell-based
[3] = test system: HIV-1 (NL4.3); assay: microbe, parasite or virus in culture; assay type: cell-based; conditions: MT-4 cells, 50% reduction of virus-induced cytopathic effect
[4] = in vitro; conditions: human
[5] = test system: BrCr Lab Strain of EV-A71; assay: Antiviral activity against the BrCr lab strain of EV-A71 in RD cells (CPE reduction, MTS/PMS); assay type: cell-based; conditions: Enterovirus A
[6] = in vitro; conditions: human; remark: listed apart in the source
[7] = test system: HIV-1 (Ba-L); assay: microbe, parasite or virus in culture; assay type: cell-based; conditions: read-out: HIV-1 (Ba-L) EC50, CCR5-tropic strain, PBMC
[8] = test system: HIV-1 (NL4.3); assay: microbe, parasite or virus in culture; assay type: cell-based; conditions: CXCR4-tropic strain, PBMC; for EC50: read-out: HIV-1 (NL4.3) EC50
[9] = test system: EV71 genogroup B5 strain TW/70902/08; assay: microbe, parasite or virus in culture; assay type: cell-based; conditions: Enterovirus A, genogroup B5, strain TW/70902/08, RD cells
[10] = test system: EV71 genogroup B2 strain 11316; assay: microbe, parasite or virus in culture; assay type: cell-based; conditions: Enterovirus A, genogroup B2, strain 11316, RD cells
[11] = test system: EV71; design: method as in PMID 27246775, PMID 31809045; conditions: Figure 1, earlier prototypes; cited from earlier work
[12] = test system: EV71 genogroup C2 strain H08300 461#812; assay: microbe, parasite or virus in culture; assay type: cell-based; conditions: Enterovirus A, genogroup C2, strain H08300 461#812, RD cells
[13] = test system: HIV; design: method as in PMID 26513643, PMID 31809045; conditions: Figure 1, earlier prototypes; cited from earlier work
[14] = test system: EV71 genogroup C4 strain TW/1956/05; assay: microbe, parasite or virus in culture; assay type: cell-based; conditions: Enterovirus A, genogroup C4, strain TW/1956/05, RD cells
[15] = Human immunodeficiency virus 2, MT4, MT-4 cells, 50% reduction of virus-induced cytopathic effect, read-out: HIV-2 (ROD) EC50
[16] = Human immunodeficiency virus 1, MT4
[17] = EVA71, RD, BrCr lab strain, RD cells, 50% reduction of virus-induced CPE, read-out: EC50

Compound	EC50 [2, 15] [µM]	EC50 [3, 16] [µM]	EC50 [5, 17] [µM]	CC50 [4] [µM]	other results
CN[C@@H]1[C@H](O[C@@H]2OC[C@@H](O)[C@H](O)[C@H]2O)[C@@H](O)[C@H](O[C@H]2c3cc(C)c(C(=O)N[C@H](C)C(=O)O)c(O)c3-c3c(cc4c(c3O)C(=O)c3cc(OC)cc(O)c3C4=O)[C@@H]2O)O[C@@H]1C [PRM-A, pradimicin A, reference compound]	5.9 ± 3.7	3.3 ± 1.2			CC50 at 5 days [1]: > 100 µM
O=C(CCOCC(COCCC(=O)NC(Cc1c[nH]c2c(-c3cc(C(=O)O)cc(C(=O)O)c3)cccc12)C(=O)O)(COCCC(=O)NC(Cc1c[nH]c2c(-c3cc(C(=O)O)cc(C(=O)O)c3)cccc12)C(=O)O)COCCC(=O)NC(Cc1c[nH]c2c(-c3cc(C(=O)O)cc(C(=O)O)c3)cccc12)C(=O)O)NC(Cc1c[nH]c2c(-c3cc(C(=O)O)cc(C(=O)O)c3)cccc12)C(=O)O (stereo not shown) [Compound 23]	0.02 ± 0.02	0.02 ± 0.01	0.3 ± 0.04		CC50 at 120 h [4]: 75 µM; CC50 [6]: > 55 µM
maraviroc					EC50 [7]: 0.00448 µM; HIV-1 (NL4.3) EC50 [8]: insensitive; EC50 [8]: > 1 µM
O=C(CCC(CCC(=O)NC(Cc1c(-c2cc(C(=O)O)cc(C(=O)O)c2)[nH]c2ccccc12)C(=O)O)(CCC(=O)NC(Cc1c(-c2cc(C(=O)O)cc(C(=O)O)c2)[nH]c2ccccc12)C(=O)O)[N+](=O)[O-])NC(Cc1c(-c2cc(C(=O)O)cc(C(=O)O)c2)[nH]c2ccccc12)C(=O)O (stereo not shown) [AL-470, reference compound]	0.6 ± 0.8	0.3 ± 0.1	0.3 ± 0.03		EC50 [9]: 0.081 ± 0.013 µM; EC50 [10]: 0.179 ± 0.011 µM; EC50 ([5]; EVA71, RD, genogroup A, BrCr, RD cells (clinical isolate panel), read-out: EC50): 0.353 ± 0.031 µM; EC50 [11]: 0.35 ± 0.03 µM; EC50 [12]: 0.057 ± 0.0002 µM; EC50 [13]: 0.27 ± 0.12 µM; EC50 [14]: 0.038 ± 0.003 µM
O=C(CCC(CCC(=O)NC(Cc1c(-c2cccc(C(=O)O)c2)[nH]c2ccccc12)C(=O)O)(CCC(=O)NC(Cc1c(-c2cccc(C(=O)O)c2)[nH]c2ccccc12)C(=O)O)[N+](=O)[O-])NC(Cc1c(-c2cccc(C(=O)O)c2)[nH]c2ccccc12)C(=O)O (stereo not shown) [I, reference compound]	64 ± 28	16 ± 5.7		> 100	
O=C(CCOCC(COCCC(=O)NC(Cc1c(-c2ccc(C(=O)O)cc2)[nH]c2c(-c3ccc(C(=O)O)cc3)cccc12)C(=O)O)(COCCC(=O)NC(Cc1c(-c2ccc(C(=O)O)cc2)[nH]c2c(-c3ccc(C(=O)O)cc3)cccc12)C(=O)O)COCCC(=O)NC(Cc1c(-c2ccc(C(=O)O)cc2)[nH]c2c(-c3ccc(C(=O)O)cc3)cccc12)C(=O)O)NC(Cc1c(-c2ccc(C(=O)O)cc2)[nH]c2c(-c3ccc(C(=O)O)cc3)cccc12)C(=O)O (stereo not shown) [Compound 32]	0.02 ± 0.02	0.2 ± 0.2	0.1 ± 0.02	> 100	CC50 [6]: > 100 µM
O=C(CCOCC(COCCC(=O)NC(Cc1c(-c2cccc(C(=O)O)c2)[nH]c2ccccc12)C(=O)O)(COCCC(=O)NC(Cc1c(-c2cccc(C(=O)O)c2)[nH]c2ccccc12)C(=O)O)COCCC(=O)NC(Cc1c(-c2cccc(C(=O)O)c2)[nH]c2ccccc12)C(=O)O)NC(Cc1c(-c2cccc(C(=O)O)c2)[nH]c2ccccc12)C(=O)O (stereo not shown) [III, reference compound]	0.8 ± 0.5	2 ± 0.6		> 100	
O=C(CCC(CCC(=O)NC(Cc1c[nH]c2c(-c3cccc(C(=O)O)c3)cccc12)C(=O)O)(CCC(=O)NC(Cc1c[nH]c2c(-c3cccc(C(=O)O)c3)cccc12)C(=O)O)[N+](=O)[O-])NC(Cc1c[nH]c2c(-c3cccc(C(=O)O)c3)cccc12)C(=O)O (stereo not shown) [Compound 14]	> 30	45.1 ± 10.2	54.8 ± 34.1	> 100	CC50 [6]: > 84 µM
O=C(CCOCC(COCCC(=O)NC(Cc1c[nH]c2c(-c3cccc(C(=O)O)c3)cccc12)C(=O)O)(COCCC(=O)NC(Cc1c[nH]c2c(-c3cccc(C(=O)O)c3)cccc12)C(=O)O)COCCC(=O)NC(Cc1c[nH]c2c(-c3cccc(C(=O)O)c3)cccc12)C(=O)O)NC(Cc1c[nH]c2c(-c3cccc(C(=O)O)c3)cccc12)C(=O)O (stereo not shown) [Compound 21]	7.9 ± 0.9	14.1 ± 0.6	3.1 ± 1.1		
O=C(CCOCC(COCCC(=O)NC(Cc1c[nH]c2c(-c3ccc(C(=O)O)cc3)cccc12)C(=O)O)(COCCC(=O)NC(Cc1c[nH]c2c(-c3ccc(C(=O)O)cc3)cccc12)C(=O)O)COCCC(=O)NC(Cc1c[nH]c2c(-c3ccc(C(=O)O)cc3)cccc12)C(=O)O)NC(Cc1c[nH]c2c(-c3ccc(C(=O)O)cc3)cccc12)C(=O)O (stereo not shown) [Compound 22]	0.4 ± 0.3	6.5 ± 2.5	1.7 ± 0.4	> 100	CC50 [6]: > 100 µM
NC(Cc1c(-c2cc(C(=O)O)cc(C(=O)O)c2)[nH]c2c(-c3cc(C(=O)O)cc(C(=O)O)c3)cc(-c3cc(C(=O)O)cc(C(=O)O)c3)cc12)C(=O)O (stereo not shown) [Compound 37, 5,5′,5″-(3-(2-Amino-2-carboxyethyl)-1H-indole-2,5,7-triyl)triisophthalic Acid]		> 100			EC50 ([5]; EVA71, RD): > 90 µM; CC50 at 5 days [1]: > 100 µM; EC50 ([2]; Human immunodeficiency virus 2, MT4, read-out: HIV-2 (ROD) EC50): > 100 µM
CCOC(=O)c1ccc(OCCC2CCN(c3ccc(C)nn3)CC2)cc1 [pirodavir, reference compound]					EC50 ([5]; EVA71, BrCr lab strain, RD cells, 50% reduction of virus-induced CPE, read-out: EC50): 0.3 ± 0.1 µM; CC50 at 3 days [6]: > 100 µM
O=C(CCC(CCC(=O)NC(Cc1c[nH]c2c(-c3cc(C(=O)O)cc(C(=O)O)c3)cccc12)C(=O)O)(CCC(=O)NC(Cc1c[nH]c2c(-c3cc(C(=O)O)cc(C(=O)O)c3)cccc12)C(=O)O)[N+](=O)[O-])NC(Cc1c[nH]c2c(-c3cc(C(=O)O)cc(C(=O)O)c3)cccc12)C(=O)O (stereo not shown) [Compound 16]	1.9 ± 0.4	0.4 ± 0.2	1.2 ± 0.2		
dextran sulfate-5000 [DS-5000, reference compound]					EC50 ([2]; MT-4 cells, 50% reduction of virus-induced cytopathic effect, read-out: HIV-2 (ROD) EC50): 0.03 ± 0.01 µM; EC50 [3]: 0.07 ± 0.02 µM
O=C(CCC(CCC(=O)NC(Cc1c(-c2ccc(C(=O)O)cc2)[nH]c2ccccc12)C(=O)O)(CCC(=O)NC(Cc1c(-c2ccc(C(=O)O)cc2)[nH]c2ccccc12)C(=O)O)[N+](=O)[O-])NC(Cc1c(-c2ccc(C(=O)O)cc2)[nH]c2ccccc12)C(=O)O (stereo not shown) [II, reference compound]	> 71	2.4 ± 1.3		71	
O=C(CCOCC(COCCC(=O)NC(Cc1c(-c2ccc(C(=O)O)cc2)[nH]c2ccccc12)C(=O)O)(COCCC(=O)NC(Cc1c(-c2ccc(C(=O)O)cc2)[nH]c2ccccc12)C(=O)O)COCCC(=O)NC(Cc1c(-c2ccc(C(=O)O)cc2)[nH]c2ccccc12)C(=O)O)NC(Cc1c(-c2ccc(C(=O)O)cc2)[nH]c2ccccc12)C(=O)O (stereo not shown) [IV, reference compound]	0.7 ± 0.8	0.7 ± 0.5		> 100	
c1cc(CN2CCCNCCNCCCNCC2)ccc1CN1CCCNCCNCCCNCC1 [AMD3100]					EC50 ([7]; Human immunodeficiency virus 1, BAL): > 1000 ng/mL; EC50 ([8]; Human immunodeficiency virus 1): 3.57 ng/mL
